Results from ChEMBL document CHEMBL4402554, “Discovery of a Bromodomain and Extraterminal Inhibitor with a Low Predicted Human Dose through Synergistic Use of Encoded Library Technology and Fragment Screening” (J Med Chem, 2020).
Values joined by “and” are separate entries in the source; they are usually repeats but may differ in a detail not shown here. Equal entries are not always repeated. Each block holds one molecule with its values, some of them ahead of it. Active and inactive are the calls of the source. The rule behind the calls is not given here.

Tests used:
[1] = target: T1, Bromodomain-containing protein 4 (Homo sapiens, UniProt O60885, Y390A); test: Displacement of Alexa Fluor 647 labelled ligand from recombinant human N-terminal His6-tagged BRD4 BD1 (1 to 477 residues)/BD2 Y390A mutant incubated for 30 mins by TR-FRET assay
[2] = organism: Homo sapiens; test: Selectivity ratio of pIC50 for Alexa Fluor 647 labelled ligand from recombinant human N-terminal His6-tagged BRD4 BD1 (1 to 477 residues)/BD2 Y390A mutant to pIC50 for BAZ2A (unknown origin)
[3] = Lipophilicity, log D of the compound at pH 7.4 by chromatographic method; format: physicochemical; conditions: buffer
[4] = Metabolic stability in rat liver microsomes; format: ADME, Microsome
[5] = Metabolic stability in human liver microsomes; format: ADME, Microsome
[6] = target: Bromodomain adjacent to zinc finger domain protein 2A (Homo sapiens, UniProt Q9UIF9); test: Inhibition of BAZ2A (unknown origin) by TR-FRET assay
Chain of Bromodomain adjacent to zinc finger domain protein 2A (Q9UIF9 whole entry, the tested form may be a part): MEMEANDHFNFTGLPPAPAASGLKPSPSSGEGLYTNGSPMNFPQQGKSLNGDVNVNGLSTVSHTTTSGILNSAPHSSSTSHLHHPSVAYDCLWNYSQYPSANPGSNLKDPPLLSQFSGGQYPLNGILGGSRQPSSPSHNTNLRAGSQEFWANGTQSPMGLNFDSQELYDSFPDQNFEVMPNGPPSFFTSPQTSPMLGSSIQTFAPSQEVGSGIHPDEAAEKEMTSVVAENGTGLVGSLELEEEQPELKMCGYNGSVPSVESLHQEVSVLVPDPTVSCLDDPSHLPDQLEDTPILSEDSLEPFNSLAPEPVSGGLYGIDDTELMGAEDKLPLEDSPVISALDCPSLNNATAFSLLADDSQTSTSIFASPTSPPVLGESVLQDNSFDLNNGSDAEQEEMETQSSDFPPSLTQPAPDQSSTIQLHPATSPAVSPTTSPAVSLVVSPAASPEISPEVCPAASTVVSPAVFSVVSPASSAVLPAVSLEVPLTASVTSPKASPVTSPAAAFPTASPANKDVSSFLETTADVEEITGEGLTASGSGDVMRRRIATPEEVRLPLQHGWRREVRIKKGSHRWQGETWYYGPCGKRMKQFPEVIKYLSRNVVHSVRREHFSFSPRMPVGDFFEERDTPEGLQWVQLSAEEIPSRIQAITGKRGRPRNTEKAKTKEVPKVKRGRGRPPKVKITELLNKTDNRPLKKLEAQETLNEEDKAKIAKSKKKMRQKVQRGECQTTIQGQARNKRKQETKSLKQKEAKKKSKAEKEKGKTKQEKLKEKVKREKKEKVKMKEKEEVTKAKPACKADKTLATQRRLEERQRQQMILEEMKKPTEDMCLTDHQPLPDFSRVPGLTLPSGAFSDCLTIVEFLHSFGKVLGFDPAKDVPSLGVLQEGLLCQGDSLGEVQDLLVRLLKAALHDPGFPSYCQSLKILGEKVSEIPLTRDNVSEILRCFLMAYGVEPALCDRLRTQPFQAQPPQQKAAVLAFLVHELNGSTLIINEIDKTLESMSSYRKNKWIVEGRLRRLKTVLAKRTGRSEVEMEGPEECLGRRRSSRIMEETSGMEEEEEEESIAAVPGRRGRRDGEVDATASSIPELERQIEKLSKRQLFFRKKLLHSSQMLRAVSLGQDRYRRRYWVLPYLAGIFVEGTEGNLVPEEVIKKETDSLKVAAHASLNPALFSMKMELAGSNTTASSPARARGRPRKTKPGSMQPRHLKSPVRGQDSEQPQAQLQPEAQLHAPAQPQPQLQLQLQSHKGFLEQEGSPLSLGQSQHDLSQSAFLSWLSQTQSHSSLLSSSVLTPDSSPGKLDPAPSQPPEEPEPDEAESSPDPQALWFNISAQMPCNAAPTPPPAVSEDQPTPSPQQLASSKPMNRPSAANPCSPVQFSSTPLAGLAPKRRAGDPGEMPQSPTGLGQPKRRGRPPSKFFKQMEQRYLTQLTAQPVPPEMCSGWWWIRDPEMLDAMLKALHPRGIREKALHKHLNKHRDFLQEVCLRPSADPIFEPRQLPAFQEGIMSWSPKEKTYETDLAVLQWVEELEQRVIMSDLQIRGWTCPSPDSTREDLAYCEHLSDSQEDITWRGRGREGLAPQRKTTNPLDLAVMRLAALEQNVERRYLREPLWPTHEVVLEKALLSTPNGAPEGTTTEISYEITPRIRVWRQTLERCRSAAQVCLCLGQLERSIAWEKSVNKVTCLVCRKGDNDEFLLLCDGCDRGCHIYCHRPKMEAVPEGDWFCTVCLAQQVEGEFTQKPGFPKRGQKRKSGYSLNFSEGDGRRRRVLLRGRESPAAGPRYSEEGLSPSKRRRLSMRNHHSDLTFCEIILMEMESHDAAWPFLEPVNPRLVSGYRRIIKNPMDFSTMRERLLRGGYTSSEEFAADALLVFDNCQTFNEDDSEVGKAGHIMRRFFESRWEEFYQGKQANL

[7] = Unbound clearance in rat at 1 mg/kg, iv; format: ADME, organism-based; conditions: in vivo
[8] = Oral bioavailability in dog at 1 mg/kg; format: ADME, organism-based, Canis lupus familiaris; conditions: in vivo
[9] = Half life in dog at 0.5 mg/kg, iv; format: ADME, organism-based, Canis lupus familiaris; conditions: in vivo
[10] = Stability in rat hepatocytes; format: ADME, cell-based, Hepatocyte
[11] = Volume of distribution at steady state in dog at 0.5 mg/kg, iv; format: ADME, organism-based, Canis lupus familiaris; conditions: in vivo; for Vd: read-out: Vdss
[12] = Fraction unbound in dog plasma at 0.5 mg/kg, iv; format: ADME, organism-based, Canis lupus familiaris
[13] = Stability in dog hepatocytes; format: ADME, cell-based, Canis lupus familiaris, Hepatocyte
[14] = Fraction unbound in rat plasma at 1 mg/kg, iv; format: ADME, organism-based
[15] = Fraction unbound in human plasma; format: ADME, cell-free
[16] = Volume of distribution at steady state in rat at 1 mg/kg, iv; format: ADME, organism-based; conditions: in vivo, read-out: Vdss
[17] = Solubility of compound in pH 6.5 FASSIF at 1 mg incubated for 4 hrs by HPLC-UV analysis; format: physicochemical
[18] = Unbound clearance in dog at 0.5 mg/kg, iv; format: ADME, organism-based, Canis lupus familiaris; conditions: in vivo
[19] = test system: Blood; test: Inhibition of LPS-induced MCP1 production in human whole blood preincubated for 30 mins followed by LPS addition measured after 18 to 24 hrs; format: functional, tissue-based
[20] = test system: Blood; test: Inhibition of LPS-induced IL6 production in human whole blood preincubated for 30 mins followed by LPS addition measured after 18 to 24 hrs; format: functional, tissue-based
[21] = Metabolic stability in dog liver microsomes; format: ADME, Canis lupus familiaris, Microsome
[22] = Stability in human hepatocytes; format: ADME, cell-based, Hepatocyte
[23] = Clearance in dog at 0.5 mg/kg, iv; format: ADME, organism-based, Canis lupus familiaris; conditions: in vivo
[24] = Clearance in rat at 1 mg/kg, iv; format: ADME, organism-based; conditions: in vivo
[25] = Half life in rat at 1 mg/kg, iv; format: ADME, organism-based; conditions: in vivo
[26] = Oral bioavailability in rat at 3 mg/kg; conditions: in vivo
[27] = test system: Mus musculus; test: Antiinflammatory activity in TNP-KLH- treated CD-1 mouse T cell-dependent immunization model assessed as IgG1 level at 3 mg/kg, po qd treated for 0.5 hrs followed by TNP-KLH treatment and measured after 14 days by ELISA analysis; format: functional
[28] = AUC (0 to infinity) in rat at 30 mg/kg, po; format: ADME, organism-based; parameters: dose 30 mg/kg, route oral, time infinity; conditions: in vivo
[29] = test system: Mus musculus; test: Antiinflammatory activity in LPS-challenged CD-1 mouse assessed as reduction in cytokine production at 1 to 10 mg/kg, po administrated as single dose 30 mins prior to LPS challenge measured after 5 hrs by immunoassay; format: functional, organism-based
[30] = AUC (0 to infinity) in dog at 1.5 mg/kg, po; format: ADME, organism-based, Canis lupus familiaris; parameters: dose 1.5 mg/kg, route oral, time infinity; conditions: in vivo
[31] = test system: Mus musculus; test: Antiinflammatory activity in TNP-KLH- treated CD-1 mouse T cell-dependent immunization model assessed as IgG1 level at 0.3 mg/kg, po qd treated for 0.5 hrs followed by TNP-KLH treatment and measured after 14 days by ELISA analysis; format: functional
[32] = Stability in CD-1 mouse hepatocytes; format: ADME, cell-based, Hepatocyte
[33] = AUC (0 to infinity) in CD-1 mouse at 3 mg/kg, po; format: ADME, organism-based; parameters: dose 3 mg/kg, route oral, time infinity; conditions: in vivo
[34] = Metabolic stability in CD-1 mouse liver microsomes; format: ADME, Microsome
[35] = test system: Mus musculus; test: Antiinflammatory activity in TNP-KLH- treated CD-1 mouse T cell-dependent immunization model assessed as IgG1 level at 3 mg/kg, po qod treated for 0.5 hrs followed by TNP-KLH treatment and measured after 14 days by ELISA analysis; format: functional
[36] = AUC (0 to infinity) in rat at 3 mg/kg, po; format: ADME, organism-based; parameters: dose 3 mg/kg, route oral, time infinity; conditions: in vivo
[37] = Oral bioavailability in rat at 30 mg/kg; format: ADME, organism-based; conditions: in vivo
[38] = target: T1, Bromodomain-containing protein 4; test: Displacement of Alexa Fluor 647 labelled ligand from recombinant human N-terminal His6-tagged BRD4 BD1 (1 to 477 residues)/BD2 Y390A mutant incubated for 60 mins by fluorescence polarization assay

SMILES: CCC(C1CCOCC1)n1c(-c2cc(C)c(=O)n(C)c2)nc2ccccc21 (configuration not stated)
- Ratio pIC50 [2]: > 2.1 and 1.6
- IC50 [1]: 794 nM and 158 nM

SMILES: Cn1cc(-c2nc3ccccc3n2CC2CCN(C(=O)CO)CC2)ccc1=O
- IC50 [1]: 7940 nM

SMILES: Cc1cc(-c2nc3ccccc3n2CC2CC3(COC3)C2)cn(C)c1=O
- Ratio pIC50 [2]: 3.1
- Stability [4]: 0.99 mL/min/g
- Stability [5]: < 0.4 mL/min/g
- IC50 [6]: 63.1 µM
- IC50 [1]: 50.1 nM

SMILES: O=C(CO)N1CCC(Cn2c(-c3ccc(=O)[nH]c3)nc3ccccc32)CC1
- IC50 [1]: > 50100 nM

SMILES: Cc1cc(-c2nc3ccccc3n2CC2CCOCC2)cn(C)c1=O
- Stability [4]: 3.2 mL/min/g
- CL free [7]: 149 mL/min/kg
- bioavailability [8]: 97%
- half-life [9]: 138 min
- Stability [10]: 17 mL/min/g
- Vd [11]: 1.4 L/kg
- Stability [5]: 0.83 mL/min/g
- IC50 [6]: 0.316 µM
- fraction unbound [12]: 0.47
- Stability [13]: < 1.3 mL/min/g
- fraction unbound [14]: 0.55
- fraction unbound [15]: 0.4
- Vd [16]: 1.4 L/kg
- solubility at 4 h [17]: > 1000 µg/mL
- CL free [18]: 17 mL/min/kg
- IC50 [19]: 251 nM
- IC50 [20]: 200 nM
- Stability [21]: < 0.37 mL/min/g
- Stability [22]: < 0.87 mL/min/g
- clearance [23]: 8 mL/min/kg
- clearance [24]: 82 mL/min/kg
- half-life [25]: 12 min

SMILES: COCC(COC)n1c(-c2cc(C)c(=O)n(C)c2)nc2ccccc21
- Ratio pIC50 [2]: > 3.7
- Stability [4]: < 0.46 mL/min/g
- CL free [7]: 63 mL/min/kg
- bioavailability [26]: 46%
- bioavailability [8]: 46%
- half-life [9]: 102 min
- Stability [10]: 1.1 mL/min/g
- Vd [11]: 0.8 L/kg
- Stability [5]: < 0.4 mL/min/g
- IC50 [6]: > 100 µM
- IC50 [1]: 39.8 nM
- fraction unbound [12]: 0.57
- Stability [13]: < 1.3 mL/min/g
- fraction unbound [14]: 0.59
- fraction unbound [15]: 0.37
- Vd [16]: 2.1 L/kg
- CL free [18]: 9 mL/min/kg
- Stability [21]: < 0.37 mL/min/g
- Stability [22]: < 0.87 mL/min/g
- clearance [23]: 5 mL/min/kg
- clearance [24]: 37 mL/min/kg
- half-life [25]: 192 min

SMILES: COCC(COC)n1c(-c2cc(C)c(=O)n(C)c2)nc2cc(N3CCOCC3)ccc21
- Stability [4]: < 0.46 mL/min/g
- Activity [27]: 20%
- CL free [7]: 24 mL/min/kg
- AUC(0-inf) [28]: 27000 ng·h/mL
- bioavailability [26]: 94%
- bioavailability [8]: 101%
- t1/2 [9]: 5.3 h
- Stability [10]: < 0.8 mL/min/g
- Activity [29]: Active
- Vdss [11]: 0.9 L/kg
- Stability [5]: < 0.4 mL/min/g
- IC50 [6]: 63.1 µM
- AUC(0-inf) [30]: 12500 ng·h/mL
- Activity [31]: 65%
- fraction unbound [12]: 0.5
- Stability [32]: < 1 mL/min/g
- Stability [13]: < 1.3 mL/min/g
- AUC(0-inf) [33]: 3620 ng·h/mL
- fraction unbound [14]: 0.69
- fraction unbound [15]: 0.72
- Vd [16]: 2.3 L/kg
- CL free [18]: 4 mL/min/kg
- IC50 [19]: 25.1 nM
- Stability [34]: < 0.48 mL/min/g
- Activity [35]: 65%
- AUC(0-inf) [36]: 2610 ng·h/mL
- IC50 [20]: 20 nM
- Stability [21]: < 0.37 mL/min/g
- Stability [22]: < 0.87 mL/min/g
- bioavailability [37]: 93%
- clearance [24]: 17 mL/min/kg
- half-life [25]: 228 min

SMILES: Cn1cc(-c2nc[nH]c2-c2ccc(F)cc2)ccc1=O
- IC50 [1]: 6310 nM

SMILES: Cc1cc(-c2nc3cc(N4CCOCC4)ccc3n2CC2CCOCC2)cn(C)c1=O
- IC50 [1]: 10 nM
- chromatographic logD [3]: 2.3
- solubility at 4 h [17]: > 1000 µg/mL
- IC50 [19]: 12.6 nM

SMILES: Cc1cc(-c2nc3ccccc3n2CCC2CCOCC2)cn(C)c1=O
- Ratio pIC50 [2]: 2.9
- IC50 [6]: 39.8 µM
- IC50 [1]: 50.1 nM

SMILES: Cc1cc(-c2nc3ccccc3n2CC2CCCOC2)cn(C)c1=O (configuration not stated)
- IC50 [6]: 25.1 µM and 79.4 µM
- IC50 [1]: 31.6 nM and 25.1 nM

SMILES: Cc1cc(-c2nc3ccccc3n2CC2CCN(C(=O)CO)CC2)c[nH]c1=O
- IC50 [1]: 1580 nM

SMILES: COCC(C)n1c(-c2cc(C)c(=O)n(C)c2)nc2ccccc21 (racemic)
- Ratio pIC50 [2]: 2.1
- IC50 [6]: 39.8 µM
- IC50 [1]: 316 nM

SMILES: Cc1cc(-c2nc3ccccc3n2C[C@H]2CC[C@H](O)CC2)cn(C)c1=O
- Ratio pIC50 [2]: 2.8
- IC50 [6]: 50.1 µM
- IC50 [1]: 79.4 nM

SMILES: Cc1cc(-c2nc3ccccc3n2C(C)C2CCOCC2)cn(C)c1=O (configuration not stated)
- Ratio pIC50 [2]: 1.4 and 0.9

SMILES: Cc1cc(-c2nc3cc(N(C)C)ccc3n2CC2CCOCC2)cn(C)c1=O
- chromatographic logD [3]: 2.9

Next, values leading:

- IC50 [1]: 1580 nM
SMILES: CC(=O)N1CCC(n2c(-c3cc(C)c(O)c(C)c3)nc3ccccc32)CC1

- IC50 [1]: 1580 nM
SMILES: CC(=O)N1CC(Cn2c(-c3cc(C)c(O)c(C)c3)nc3ccccc32)C1

- IC50 [1]: 2000 nM
- chromatographic logD [3]: 0.8
SMILES: CNC(=O)c1ccc2c(c1)nc(-c1cc(C)c(O)c(C)c1)n2CC1CCNCC1

- IC50 [1]: 2510 nM
SMILES: CC(=O)N1CCC(Cn2c(-c3cc(C)c(O)c(C)c3)nc3ccccc32)C1 (racemic)

- IC50 [1]: 1580 nM
SMILES: CC(=O)N[C@H]1CC[C@H](Cn2c(-c3cc(C)c(O)c(C)c3)nc3ccccc32)CC1

- IC50 [1]: 501 nM
SMILES: CC(=O)N1CCC(Cn2c(-c3cc(C)c(O)c(C)c3)nc3ccccc32)CC1

- chromatographic logD [3]: 2
- IC50 [38]: 251 nM
SMILES: CNC(=O)c1ccc2c(c1)nc(-c1cc(C)c(O)c(C)c1)n2CC1CCN(C(C)=O)CC1

- IC50 [1]: 200 nM
- chromatographic logD [3]: 3.2
- IC50 [38]: 126 nM
SMILES: CNC(=O)c1ccc2c(c1)nc(-c1cc(C)c(O)c(C)c1)n2CC1CCN(C(=O)c2ccccc2)CC1

- IC50 [1]: 501 nM
SMILES: CC(=O)N[C@H]1CC[C@@H](Cn2c(-c3cc(C)c(O)c(C)c3)nc3ccccc32)CC1
